Test results as given in patent USRE35053E, “Amines useful in producing pharmaceutically active CNS compounds” (The Upjohn Company, priority 1992, dated 1995).
Where a name gives a salt, the structure may show the parent alone.

Key:
[1] = system: conjugated diene formation in rat brain synaptosomes; experiment: Conjugated diene formation assay (lipid peroxidation); type: biochemical; conditions: 100 μM (or less) of the drug, active = 50% inhibition or more
Protocol: The formation of conjugated dienes as assayed by Braughler. […] Bucher, Fund.
Synaptosomal suspension (10 μl) is added to 1 ml of physiological (normal) saline containing 1% Lubrol PX (Sigma Chemical Co. St. Louis, Mo.). […] The reaction is started by the rapid addition of 200 μM ferrous ammonium sulfate prepared in argon-purged water. The sample is rapidly mixed and the change in absorbance at 232nm is followed in a Gilford Response Spectrophotometer equipped with a rapid sampler. Due to the rapidity of the reaction, rapid addition of the iron, rapid mixing and sampling are obligatory to the accuracy of the assay. For best results absorbance readings of one/sec should be started within 5 sec following the addition of iron. The initial linear rate of absorbance change during the first 30 sec of reaction are compared with the rate of a reaction containing all reagents except synaptosomes. The difference in rates is the rate of conjugated diene formation. Rates with drug are compared to rates obtained in the absence of drug and the % inhibition is calculated.

[2] = system: induced mucous secretions; experiment: inhibition of mucous secretion assay of Johnson; conditions: for inhibition of mucous secretion: inhibit or block enhancement of induced mucous secretions; for preferred mucous inhibitors per test results: ranking in words
Text: The inhibition of mucous secretion assay of Johnson Int. […] According to this procedure compounds which inhibit or block enhancement of induced mucous secretions when tested are considered to be "active".

[3] = system: arachidonic acid; experiment: Arachidonic Acid Antagonism Assay (AAAA); type: in vivo, mouse (Charles River male CF-1); conditions: mice; for arachidonic acid antagonism (elevation of LD50 of arachidonic acid): IV, 15 min before sodium arachidonate, outside 95% confidence interval of control LD50
Protocol: While not necessary to determine arachidonic acid antagonism, the above assay has been modified as follows: Charles River male CF-1 mice weighing […] are treated IV with the test compound dissolved in 1.0% Tween-80 and 0.1% hydrochloric acid in distilled water. 0 2 ml total volume. Fifteen minutes later sodium arachidonate (90% pure) in physiological (normal) […] is injected into the tail vein. The LD50 is measured using the Spearman-Karber method with a log dose interval of 0.05 (N-6). Compounds which elevate the LD50 outside of the 95% confidence interval of the control LD50 are considered to be "active".

[4] = system: angiogenesis; experiment: fertile egg or chick embryo assay of Folkman (inhibition of angiogenesis / tumor growth); type: in vivo; conditions: chick embryo; for inhibition of angiogenesis: 50 μg/10 μl with heparin, avascular zone 4 mm or greater
Protocol: According to this procedure compounds which are considered to be "active" (i.e, antiangiogenic) give an avascular zone of 4 mm or greater in some embryos when tested at 50 μg/10 μl in the presence of 50 μg/10 μ of heparin.

[5] = system: AcylCoA:Cholesterol Acyltransferase (ACAT); experiment: AcylCoA:Cholesterol Acyltransferase (ACAT) inhibition Assay; type: cell-based; design: key: compounds which inhibit ACAT activity equal to, or greater than, that of chlorpromazine are considered "active"; conditions: active = equal to or greater than chlorpromazine; Fu5AH cells preferred
Text: ACAT esterifies arterial cholesterol which is a key reaction in the development of atherosclerosis. The procedure of Bell, Can. J. Blochem. 60. […] In the ACAT assay it is preferred to use Fu5AH cells, see Lipids 9, 526 (1974). According to this procedure, compounds which inhibit ACAT activity equal to, or greater than, that of chlorpromazine are considered "active".

[6] = system: MDA formation in rat brain synaptosomes; experiment: Malonyldialdehyde (MDA) Formation Assay (lipid peroxidation); type: biochemical; conditions: active = 50% inhibition or more at 200 μM or less
Text: The MDA assays of Buege and Aust, Methods in Enzymology, Fleisher and Packer Editors. Academic Press, 1978, New York, Vol LII, p 302-310 and Kohn and Liversedge, J. Pharmacol. Exp. Ther. 82. […] Since iipid peroxidation is involved in the pathophysiology of central nervous system trauma, compounds which inhibit MDA formation are useful in treating the conditions listed below.
While not necessary to determine MDA formation, the above assays have been modified as follows: rat brain synaptosomes are prepared as described in the Example about the conjugated diene assay, except that the final wash of the synaptosomes and final suspension are in physiological (normal) saline in which the pH has been adjusted to 7 0. The synaptosomes are incubated for 10 min at 37° in physiological (normal) saline pH 7.0 (total volume=100 ul) containing; 10 ul synaptosomal suspension. 10% DMSO plus or minus drug. 150 uM Fe^+++ and 50 uM Fe^++. The incubation is started by the rapid addition of iron to the otherwise complete reaction. The iron solutions are prepared fresh as ferric chloride and ferrous ammonium sulfate in argon-purged water. Following the 10 min incubation, the reaction is stopped by the addition of 500 ul ice-cold 12% trichloroacetic acid prepared in 0.5 N hydrochloric acid. Water (300 ul) is then added along with 100 ul of freshly prepared thiobarbituric acid (3.3% in 0.5N sodium hydroxide) and 10 ul of 5mM desferrioxamine. The sample is then heated in a boiling water bath for 20 minutes. The samples are cooled and centrifuged for 15 minutes at 1500 xg and the absorbance of the supernatant fraction is read at 532 nm. The % inhibition of MDA formation is calculated by dividing the absorbance of sample containing drug by the absorbance of samples incubated without drug. Reaction blanks are samples incubated in the absence of iron A compound that inhibits MDA formation by 50% or more at a concentration of 200μM or less is considered "active".

[7] = system: interleukin-1; experiment: inhibition of interleukin-1 induced T cell proliferation assay; type: cell-based; conditions: active = >30% at 10^-6 M
Text: The inhibition of interleukin-1 induced T cell proliferation assay, Proc. Nat. […] Since people with arthritis make excess interleukin 1, compounds which inhibit the activity of interleukin 1 are useful in the treatment of arthritis. According to this procedure compounds which inhibit the activity of interleukin 1 greater that 30% at 10^-6 M are considered to be "active".

Row | SMILES | inhibition of conjugated diene formation [1] | inhibition of mucous secretion [2] | inhibition of MDA formation [6] | inhibition of interleukin 1 [7] | also measured
1 | CS(=O)(=O)O.C[C@]12CCC(=O)C=C1CC[C@@H]1C2=CC[C@@]2(C)[C@H]1CC[C@]2(O)C(=O)CN1CCN(c2ccccn2)CC1 [Example 2, 17α-Hydroxy-21-[4-(2-pyridinyl)-1piperazinyl]pregna-4,9(11)-diene-3,20di-one methanesulfonate] | demonstrate such activity | demonstrate such activity | – | – | preferred mucous inhibitors per test results [2]: preferred mucous inhibitors; arachidonic acid antagonism (elevation of LD50 of arachidonic acid) [3]: demonstrate arachidonic acid antagonism; % of Embryos with 4 mm or Greater A vascular Zone ([4]; 50 μg/10 μl in the presence of heparin): 85%
2 | CCN(CC)c1cc(N2CCN(CC(=O)[C@@]3(O)CC[C@H]4[C@@H]5CCC6=CC(=O)CC[C@]6(C)C5=CC[C@@]43C)CC2)nc(N)n1 [Example 4, 21-[4-[2.Amino-6-(diethylamino)-4-pyrimidinyl]1-piperazinyl]-17α-hydroxypregna-4,9(11)-diene-3,20-dione] | demonstrate such activity | demonstrate such activity | – | – | arachidonic acid antagonism (elevation of LD50 of arachidonic acid) [3]: demonstrate arachidonic acid antagonism
3 | C[C@]12CCC(=O)C=C1CC[C@@H]1C2=CC[C@@]2(C)[C@H]1CC[C@]2(O)C(=O)CN1CCC(O)(c2ccc(C(F)(F)F)cc2)CC1 [Example 5, 17α-Hydroxy-21-[4-hydroxy-4 (4-trifiuoromethyl)phenyl 1-piperidinyl]pregna-4,9(11)-diene-3 20-dione] | demonstrate such activity | – | – | – | –
4 | CCN(CC)c1nc(N2CCCCC2)cc(N2CCN(CC(=O)[C@@]3(O)CC[C@H]4[C@@H]5CCC6=CC(=O)CC[C@]6(C)C5=CC[C@@]43C)CC2)n1.Cl.O [Example 17, 17α-Hydroxy-21-[4-[2-(diethylamino)-6-(1-piperidinyl)-4-pyrimidinyl]-1-piperazinyl]pregna-4,9(11)-diene-3,20-dione hydrochloride hydrate] | – | – | demonstrate such activity | – | % of Control LD50 ([3]; 100 mg/kg, LD50 of sodium arachidonate): 150%; inhibition of ACAT [5]: active
5 | C[C@H]1C[C@@H]2C(=CC[C@@]3(C)[C@H]2CC[C@]3(O)C(=O)CN2CCN(c3cc(N4CCCC4)nc(N4CCCC4)n3)CC2)[C@@]2(C)C=CC(=O)C=C12 [Example 47, 17α-hydroxy-6α-methyl-21-[4-[2,6-bis(1-pyrrolidinyl)-4-pyrimidinyl-1-piperazinyl)pregna-1,4,9(11)-triene-3,20-dione,(E)-2-butenodioate salt] | demonstrate such activity | – | demonstrate such activity | demonstrate inhibition of interleukin 1 | arachidonic acid antagonism (elevation of LD50 of arachidonic acid) [3]: demonstrate arachidonic acid antagonism
6 | CS(=O)(=O)O.CS(=O)(=O)O.C[C@@H]1C[C@H]2[C@@H]3CCC4=CC(=O)C=C[C@]4(C)C3=CC[C@]2(C)[C@H]1C(=O)CN1CCN(c2cc(N3CCCC3)nc(N3CCCC3)n2)CC1 [Example 83, 16α-Methyl-21-[4-(2,6-bis(1-pyrrolidinyl)-4-pyrimidinyl]-1-piperazinyl]pregna-1,4,9(11)-triene-3,20-dione dimethane-sulfonate] | demonstrate such activity | demonstrate such activity | demonstrate such activity | demonstrate inhibition of interleukin 1 | preferred mucous inhibitors per test results [2]: preferred mucous inhibitors; inhibition of angiogenesis [4]: demonstrate inhibition of angiogenesis
7 | C[C@@H]1C[C@H]2[C@@H]3CCC4=CC(=O)C=C[C@]4(C)[C@H]3[C@H](O)C[C@]2(C)[C@H]1C(=O)CN1CCN(c2cc(N3CCCC3)nc(N3CCCC3)n2)CC1 [Example 84, 11α-hydroxy-16α-methyl-21-[4-[2,6-bis(1-pyrrolidinyl)-4-pyrimidinyl]-1-piperazinyl]pregna-1,4-diene 3,20-dione] | demonstrate such activity | – | – | demonstrate inhibition of interleukin 1 | –
8 | C[C@@H]1C[C@H]2[C@@H]3CCC4=CC(=O)C=C[C@]4(C)C3=CC[C@]2(C)[C@H]1C(=O)CN1CCN(c2cc(N3CCOCC3)nc(N3CCOCC3)n2)CC1 [Example 86, 16α-methyl-21-[4-[2,6-bis(4-morpholino)-4-pyrimidinyl]-1-piperazinyl]pregna-1,4,9(11)-triene-3,20-dione] | demonstrate such activity | – | demonstrate such activity | demonstrate inhibition of interleukin 1 | inhibition of angiogenesis [4]: demonstrate inhibition of angiogenesis
9 | C[C@]12CCC(=O)C=C1CC[C@@H]1C2=CC[C@@]2(C)[C@H]1CC[C@]2(O)C(=O)CN1CCN(c2cc(N3CCOCC3)nc(N3CCOCC3)n2)CC1 [Example 105, 21-[4-(2,6-Bis(4-morpholino)-4-pyrimidinyl)-1-piperazinyl]-17α-hydroxypregna-4,9(11)-diene-3,20-dione dihydrochloride, hydrate] | – | demonstrate such activity | – | demonstrate inhibition of interleukin 1 | preferred mucous inhibitors per test results [2]: preferred mucous inhibitors; inhibition of angiogenesis [4]: demonstrate inhibition of angiogenesis
10 | C[C@]12C=CC(=O)C=C1CC[C@@H]1C2=CC[C@]2(C)[C@@H](C(=O)CN3CCN(c4cc(N5CCCC5)nc(N5CCCC5)n4)CC3)CC[C@@H]12.Cl.Cl [Example 111, 21-[4-(2,6-Bis(1-pyrrolidinyl)-4-pyrimidinyl)-1-piperazinyl]pregna-1,4,9(11)-triene-3,20-dione dihydrochloride] | demonstrate such activity | – | – | – | –
11 | CC(CN1CCN(c2cc(N3CCCC3)nc(N3CCCC3)n2)CC1)[C@H]1CC[C@H]2[C@@H]3CCC4=CC(=O)C=C[C@]4(C)[C@H]3CC[C@]12C.CS(=O)(=O)O.O (stereo partly shown) [Example 112, 21-[4-(2,6-Bis(1-pyrrolidinyl)-4-pyrimidinyl)-1-piperazinyl]-20-methylpregna-1,4-dien-3-one methanesulfonate, hydrate] | demonstrate such activity | – | – | – | –
